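Cells were grown in 96-well plates and exposed to each compound for 48 hours at five concentrations; endpoints were interpolated linearly between bracketing concentrations, or set to the highest concentration if not reached. GI50 = concentration required for 50% inhibition of growth. TGI: concentration producing complete growth inhibition.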

What all share (assay): NCI-60 cell line screen, 48 h
Experiment [1] relates to 786-0 renal.
For experiment [2], the system named is SK-MEL-5 melanoma.
Experiment [3] deals with HCT-116 colon.
Experiment [4] has as its system SW-620 colon.
In experiment [5] the test system is SF-268 CNS.
In experiment [6] the test system is MALME-3M melanoma.
Experiment [7] relates to OVCAR-5 ovarian.
The test system of experiment [8] is U251 CNS.
Experiment [9] relates to A498 renal.
For experiment [10], the system named is SNB-75 CNS.

Turning to `COc1ccc(-c2cc(-c3ccc(O)cc3O)c(C#N)c(=O)[nH]2)cc1`, the TGI in experiment [1] came out at 40.9 µM; in experiment [2], 34.6 µM; in experiment [3] it was 38.7 µM; in experiment [4], 50.3 µM; in [5] it was 73.5 µM; in [6], 70.4 µM. For the same compound, the TGI amounted to 43.3 µM in experiment [7] and 41 µM in experiment [8].

`Cc1ccc(C(=O)Cn2c(C(=O)/C=C/c3cccs3)nc3ccccc32)cc1`: the TGI in experiment [1], in [2], in experiment [3], in experiment [4], in experiment [5] and in experiment [9] was greater than 100 µM in each case. Further, the TGI in experiment [6], in experiment [7], in [10] and in [8] was greater than 100 µM in each case.

Take `Nc1ccc(Oc2ccc(C3(c4ccc(Oc5ccc(N)cc5)cc4)C4CC5CC(C4)CC3C5)cc2)cc1`: the TGI in experiment [1] is 19.1 µM; in [2], greater than 100 µM; in experiment [3], 13.7 µM; in [4], greater than 66.5 µM; in experiment [5], greater than 95.3 µM; in [9] it was 9.36 µM. Also, the TGI in experiment [6] is greater than 64.2 µM; in [7], greater than 100 µM; in [10] it was greater than 100 µM; in experiment [8], 21.5 µM.

For `CC(=O)O[C@@H]1C(=O)N(c2ccccc2)[C@@H]1c1cc2ccccc2c2ccccc12`, the TGI was greater than 100 µM in [1]; 59.4 µM in experiment [2]; 91 µM in experiment [3]; greater than 100 µM in [5]; greater than 100 µM in experiment [9]; 88.9 µM in experiment [6]. Moreover, the TGI in [7] and in [8] was greater than 100 µM throughout.

With `O=C(Nc1ccc(-n2cc(-c3ccncc3)c(-c3ccc(O)c(Cl)c3)n2)cc1)Nc1ccc(Cl)c(C(F)(F)F)c1`, the GI50 in experiment [2] was 2.87 µM; in [3], 3.15 µM; in experiment [4] it was 4.55 µM; in experiment [5] it was 4.36 µM; in experiment [9] it was 14.8 µM; in experiment [6], 3.04 µM. Further, the GI50 is 5.29 µM in [7], 2.59 µM in experiment [10] and 2.53 µM in experiment [8]. Moreover, the TGI came out at 10.7 µM in experiment [2]; 10.8 µM in [3]; 20 µM in experiment [4]; 26.7 µM in experiment [5]; 34.3 µM in experiment [9]; 17.1 µM in experiment [6]. The results for the TGI in experiment [7], in [10] and in experiment [8] were 19.1 µM, 14.3 µM and 10.1 µM, respectively.

`O=[N+]([O-])c1ccc(Oc2c(Cl)cc(S(=O)(=O)/N=C(\NO)Nc3ccc(Cl)cc3)cc2Cl)c(Cl)c1`: the TGI in experiment [1] amounted to 27.8 µM; in [2] it was 31.3 µM; in experiment [3], 26.2 µM; in experiment [4] it was 80.3 µM; in [5], 29.6 µM; in [9], 25.9 µM. Besides, the TGI came out at 28.3 µM in experiment [6], 35.5 µM in experiment [7] and 30.8 µM in [8].

As for `CCOC(=O)C(Cc1cn(C(C)=O)c2ccccc12)P(=O)(OCC)OCC` (stereo not drawn), the TGI in experiment [2], in experiment [3], in [4], in experiment [7], in [10] and in [8] was greater than 100 µM each time.

Turning to `C/C(=N\NC(=S)NCCCCNC(=S)N/N=C(\C)c1ccccn1)c1ccccc1`, the TGI is 81.5 µM in experiment [3]; greater than 100 µM in experiment [4]; greater than 36.5 µM in experiment [5]; 15 µM in experiment [9]; greater than 52.4 µM in [6]; greater than 85.6 µM in experiment [7]. In addition, the TGI in [10] worked out at 9.92 µM; in experiment [8] it was 15.6 µM.

On to `Cc1ccc([N+](=O)[O-])cc1S(=O)(=O)Nc1ccc(C2=NOC(c3cccs3)C2)cc1` (stereo not drawn), for which the TGI is 37.7 µM in [1]; 22.5 µM in [2]; 28.1 µM in experiment [3]; 48.4 µM in experiment [4]; 99.2 µM in experiment [5]; 36.7 µM in experiment [9]. Further, the TGI in [6] is greater than 100 µM; in experiment [7], greater than 100 µM; in [10], 61.8 µM.

As for `COc1cc2c(cc1OCCCOS(C)(=O)=O)N=C[C@@H]1CCCN1C2=O`, the TGI in experiment [1], in [2], in [3], in experiment [4], in experiment [5] and in [9] was greater than 100 µM each time. Moreover, the TGI in [6], in experiment [10] and in experiment [8] was greater than 100 µM in each case. Further, the GI50 in experiment [10] was 94.7 µM.

Take `COc1ccc(OC)c(C2CCc3c(cnc4nc(N)nc(N)c34)C2)c1` (stereo not drawn): the TGI was 18.3 µM in [1]; 33.4 µM in experiment [2]; 14.2 µM in [3]; 37.2 µM in [4]; 18.9 µM in [5]; 27.4 µM in experiment [9]. Also, the figures for the TGI in experiment [6], in [7] and in [8] were 20.9 µM, 22.2 µM and 18.7 µM, respectively.

Regarding `N#CCCN(CCC#N)c1ccc(/C=C(\NC(=O)c2cc([N+](=O)[O-])ccc2Cl)C(=O)Nc2ccccc2)cc1`, the TGI in experiment [2], in experiment [3], in experiment [5], in [7] and in [8] was greater than 100 µM in each case.

Consider `C/C(=N\NC(=S)N(C)C)c1nc2ncccc2[nH]1`, for which the TGI in experiment [2] was 1.87 µM; in [3] it was greater than 100 µM; in [4] it was greater than 100 µM; in experiment [5], greater than 100 µM; in experiment [9], 69.5 µM; in [6], 6.68 µM. Further, the TGI in experiment [7], in [10] and in experiment [8] was greater than 100 µM each time.

As for `CCCn1cc2c(SC)nc(SC)nc2n1`, the TGI in experiment [2], in [3], in experiment [4], in [5], in experiment [9] and in [6] was greater than 100 µM each time. Besides, the TGI in [7], in experiment [10] and in [8] was greater than 100 µM in each case.

The values above are taken from PubChem BioAssay (NCI).
